# Source: PMC3283556, “The Activities of Current Antimalarial Drugs on the Life Cycle Stages of Plasmodium: A Comparative Study with Human and Rodent Parasites” (PLoS Medicine, 2012)
# Where two headings read alike, the source gives them in different places.
# Columns and labels:
# [1] = system: P. falciparum asexual blood stage parasites (strains NF54, D6, K1, W2, 7G8, TM90C2A, V1/S); assay: [3H]-hypoxanthine incorporation growth inhibition assay, asexual blood stage; format: cell-based, Plasmodium falciparum; settings: for IC50: Plasmodium falciparum; for resistance / retention of potency against resistant strains: drug-resistant strains; for fold reduction in potency: against all drug-resistant strains containing the mutated chloroquine transporter (PfCRT)
# Protocol: In vitro antimalarial activity was measured using the [^3H]-hypoxanthine incorporation assay with various strains of P. falciparum obtained from MR4. Results were expressed as the concentration resulting in 50% inhibition (IC50).
# The half-maximal inhibitory concentrations (IC50) were determined for each molecule (Table S2).
# Figure 2 The potencies of selected antimalarials against asexual blood stages. Main classes of antimalarials were tested against the blood stage of seven Plasmodium falciparum strains in the [^3H]hypoxanthine incorporation assay as described in Vennerstrom et al.. The strains tested here (obtained from MR4) were two drug-sensitive strains NF54 and D6 and five drug-resistant strains: K1, resistant to chloroquine (CQ) and pyrimethamine (PYR), origin Thailand, carries mutations in genes pfmdr1, pfcrt, pfdhfr, pfdhps; W2, resistant to CQ, PYR, quinine, cycloguanil, and sulfadoxine, origin Vietnam; 7G8, resistant to CQ and PYR, origin Brazil; TM90C2A, resistant to CQ, PYR, and MFQ, origin Thailand; and V1/S, resistant to CQ, PYR and cycloguanil, origin Vietnam. Results are expressed as the concentration resulting in 50% growth inhibition (IC50).Values are means of ≥3 independent experiments. (A) Endoperoxides. (B) 4-AQs. (C) 8-AQs and amino alcohols. (D) Antifolates, antibiotics, and others.
# [2] = system: P. yoelii liver stage parasites (liver schizonts); assay: P. yoelii liver stage assay in HepG2 cells (EEF immunofluorescence); format: cell-based, Plasmodium yoelii; settings: for IC50: Plasmodium yoelii; for potency range against liver stages: dose response
# Protocol: (§1) 7.5×10^3 HepG2 cells in 50 µl of medium (1.5×10^5 cells/ml) were seeded in 384 well plates (Aurora 384 IQ-EB Black/Clear Plates) 20–26 h prior to the actual infection. 2 h prior to infection, 50 nl of compound in DMSO (0.1% final DMSO concentration per well) were transferred with a PinTool (GNF Systems) into the assay plates (10 µM final concentration). P. yoelii sporozoites were freshly dissected from infected A. stephensi mosquito salivary glands and filtered twice with a 40-µm strainer. The HepG2 cells were then infected with 8×10^3 sporozoites per well. After infection and 1-h incubation at 37°C, the cultures were washed, new media and compound added, and further incubated with 5-fold increased concentration of penicillin/streptomycin for 48 h at 37°C before exoerythrocytic forms (EEFs) quantification of infected cells by immunofluorescence.
# After washing with 1×PBS and fixation of the cells with 4% paraformaldehyde solution (EMS), membranes were permeabilised with 0.5% Triton-X-100 (Thermo Fisher Scientific) and EEFs were stained using a mouse polyclonal serum raised against the Plasmodium heat shock protein 70 (HSP70), an Alexa goat antimouse IgG, Fca-specific DyLight 649 secondary antibody (Invitrogen), and the Hoechst 33342 nucleic acid dye (Invitrogen). Stained EEFs were then quantified using the Opera Confocal High Content Screening system (PerkinElmer). Images were collected using a 20× magnification at a binning of 2 using a 365 Xeon arc lamp illumination to detect the nuclei and 635-nm laser line to excite DyLight649.
# (§2) High-content imaging of infected HepG2-CD81 cells was performed as described in Meister et al.. Wells were analysed using a custom Acapella (PerkinElmer) script parameterized for this assay. In brief, images from fields inside the well were first discarded as out of focus when the intensity in the nuclear area was too low. Then hepatic cells were counted by detecting the nuclei labelled with Hoechst 33342 and parasites were segmented using the HSP70 immuno-labelling. Morphology-based (e.g., area, roundness) and intensity-based features were calculated for each object detected including the hepatocyte nuclei and the parasites. Parasitemia was set as the ratio between parasite number (Alexa fluor positive) and the hepatocyte nuclei count, determined at the same time.
# (§3) When an infected mosquito bites a host, ∼100 sporozoites may be injected into the dermis from where they rapidly invade liver cells,[33]. This infective step represents the second bottleneck during transmission and therefore another potentially vulnerable point for intervention. In the absence of a practical liver stage assay measuring the formation of P. falciparum/P. vivax liver schizonts, an equivalent assay was developed in P. yoelii and used to assess the activity of the collection of molecules against this specific stage. Specifically, P. yoelii sporozoites were dissected from the salivary glands of infected mosquitoes and were allowed to invade human hepatocarcinoma cells expressing the CD81 protein. The development of the liver schizonts was monitored by immunofluorescence staining using an HSP70 antibody specific to the parasite (Figure 4A).
# Figure 4 Validation and results of anti-infectives tested against P. yoelii liver stage parasites. (A) Opera-generated images from a time point experiment using a 20× objective lens. P. yoelii parasites (red) were visualized using a mouse polyclonal HSP70 antibody, and the HepG2 cells (green) were stained with Hoechst 33342 nucleic acid dye. […] (B) A dose response plot with atovaquone from data generated from the Opera imaging system. The median areas of compound-treated parasites were compared to untreated DMSO controls to determine the degree of inhibition.
# [3] = system: P. falciparum mature gametocytes / male gamete exflagellation; assay: P. falciparum exflagellation assay; format: cell-based, Plasmodium falciparum; settings: for inhibition at 10 µM: Plasmodium falciparum
# Protocol: After 24 h, exflagellation was triggered by a temperature decrease to ∼21°C and observed 20 min later under the microscope. Highly motile exflagellation centres were recorded for ∼50–150 adjacent fields of view and reported per 10,000 RBCs.
# (A) Assays examined exflagellation (P. falciparum), ookinete formation (P. berghei), or oocyst formation (P. falciparum). All antimalarials were screened at 10 µM. (B) The biological content of the in vitro P. berghei ookinete assay spans gamete formation, fertilization, zygote development, and ookinete formation. […] (D) The in vitro P. falciparum exflagellation assay exposes mature gametocytes to antimalarials for 24 h before triggering exflagellation. […] All experiments in triplicate. (E) The in vivo P. falciparum oocyst assay differs from the P. berghei oocyst assay in that mature gametocytes were exposed to the antimalarials in culture for 24 h before feeding to mosquitoes.
# [4] = system: HepG2 cells; assay: Growth retardation of HepG2 cells; settings: for IC50: Homo sapiens, HepG2, read-out: IC50 HepG2
# Protocol: as §1, §2, §3
# [5] = asexual blood stage, all parasite lines
# [6] = HepG2, box linked to liver schizont, read-out: IC50 (liver schizont, Figure 5)
# [7] = HepG2, dose response, read-out: IC50 liver stage
# [8] = 10 µM, 24 h exposure of mature gametocytes
# [9] = asexual blood stage, all parasite lines, read-out: IC50
# [10] = asexual blood stage, both drug-resistant and -sensitive strains, read-out: IC50
# [11] = HepG2, development of P. yoelii liver schizonts following infection of HepG2 cells, read-out: IC50 Parasite
# [12] = read-out: inhibition of exflagellation, 10 µM, 24 h exposure of mature gametocytes
# [13] = 10 μM, box linked to gametocytes/exflagellation, read-out: Inhibition at 10 μM (gametocytes/exflagellation, Figure 5)
# [14] = HepG2, dose response, median parasite area (Opera), read-out: IC50 liver stage
structure (smiles),measurement,setting,value
CC(C)(C)NCc1cc(Nc2ccnc3cc(Cl)ccc23)c2c(c1O)CCCC2 [naphthoquine],IC50,[1]; [5],0.002 to 0.01 µM
same,resistance / retention of potency against resistant strains,[1],do not lose potency when tested against chloroquine resistant strains
same,IC50,[2]; [6],< 1 µM
same,IC50,[2]; [7],< 3 µM
CCN(CC)CCCC(C)Nc1ccnc2cc(Cl)ccc12 (stereo not drawn) [chloroquine],fold reduction in potency,[1],6–100 fold
same,enhancement (stimulation) of exflagellation,[3]; [8],at least 20%
C[C@]12CC[C@H](O)CC1=CC[C@@H]1[C@@H]2CC[C@]2(C)C(=O)CC[C@@H]12 [dehydroepiandrosterone],IC50,"[1]; asexual blood stage, both drug-resistant and -sensitive strains",1 to 10 µM
C[C@@H]1CC[C@H]2[C@@H](C)C(=O)O[C@@H]3O[C@@]4(C)CC[C@@H]1[C@]32OO4 [artemisinin],IC50,[1]; [9],0.001 to 0.015 µM
CC(=O)N(O)CCCCCNC(=O)CCC(=O)N(O)CCCCCNC(=O)CCC(=O)N(O)CCCCCN [deferoxamine],IC50,[2]; [6],< 1 µM
same,potency range against liver stages,[2],submicromolar potencies
CCN(CCO)CCCC(C)Nc1ccnc2cc(Cl)ccc12 (stereo not drawn) [hydroxychloroquine],fold reduction in potency,[1],6–100 fold
same,enhancement (stimulation) of exflagellation,[3]; [8],at least 20%
Cc1cc2nc3c(=O)[nH]c(=O)nc-3n(C[C@H](O)[C@H](O)[C@H](O)CO)c2cc1C [riboflavin],IC50,[1]; [10],1 to 10 µM
N=C(N)c1ccc(OCCCCCOc2ccc(C(=N)N)cc2)cc1 [Pentamidine],IC50,[2]; [11],2.46 ± 0.57 µM
same,IC50,[4],3.75 ± 1.1 µM
same,CI (cytotoxicity index),"[4]; human, 48 h",1.52
COc1cc(NC(C)CCCNC(C)=C2CCOC2=O)c2ncccc2c1 (stereo not drawn) [bulaquine],IC50,[1]; [10],0.5 to 2.5 µM
C=C[C@H]1C[N@@]2CC[C@H]1C[C@@H]2[C@@H](O)c1ccnc2ccc(OC)cc12 [quinidine],IC50,[2]; [6],< 1 µM
same,potency range against liver stages,[2],submicromolar potencies
Cc1cc(NS(=O)(=O)c2ccc(N)cc2)no1 [sulfamethoxazole],inhibition at 10 µM,[3]; [12],> 80%
same,inhibition at 10 µM,[3]; [13],> 60%
C[C@H]1[C@H](OC(=O)CCC(=O)O)O[C@@H]2O[C@@]3(C)CC[C@H]4[C@H](C)CC[C@@H]1[C@@]24OO3 [artesunate],IC50,[1]; [9],0.001 to 0.015 µM
same,IC50,[2]; [6],< 1 µM
Clc1ccc2c(N3CCN(CCCN4CCN(c5ccnc6cc(Cl)ccc56)CC4)CC3)ccnc2c1 [piperaquine],IC50,[1]; [5],0.002 to 0.01 µM
same,resistance / retention of potency against resistant strains,[1],do not lose potency when tested against chloroquine resistant strains
COc1cc(NC(C)CCCN)c2ncccc2c1 (stereo not drawn) [primaquine],IC50,[1],0.5 to 2.5 µM
same,enhancement (stimulation) of exflagellation,[3]; [8],15%
CCN(CC)CCCC(C)Nc1cc(OC)cc2cccnc12 (stereo not drawn) [diethylprimaquine],IC50,[1]; [10],0.5 to 2.5 µM
same,inhibition at 10 µM,[3]; [12],> 70%
"OC(c1cc(C(F)(F)F)nc2c(C(F)(F)F)cccc12)C1CCCCN1 (racemic) [racemic mefloquine, mefloquine]",IC50,[1],< 0.01 µM
same,IC50,[2]; [11],1.69 ± 1.45 µM
same,IC50,[4],1.73 ± 0.6 µM
same,CI (cytotoxicity index),"[4]; human, 48 h",1.02
[H]/N=C(\N/C(=N/[H])Nc1ccc(Cl)cc1)NC(C)C [proguanil],IC50,[1]; [10],1 to 10 µM
same,IC50,[2]; [11],11.8 ± 5.19 µM
same,IC50,[4],15.4 ± 3.09 µM
same,CI (cytotoxicity index),[4]; IC50 HepG2 compared to IC50 parasite,1.31
CC(C)(C)NCc1ccc(Nc2ccnc3cc(Cl)ccc23)cc1O [tert-butyl-isoquine],IC50,[1]; [5],0.002 to 0.01 µM
same,resistance / retention of potency against resistant strains,[1],do not lose potency when tested against chloroquine resistant strains
same,effect on exflagellation (words),[3]; [8],inhibited P. falciparum exflagellation
same,effect on exflagellation (words),"[3]; 10 µM, 24 h exposure of mature gametocytes, listed as tert-butyl isoquine",inhibited exflagellation totally
same,inhibition at 10 µM,[3]; [13],> 60%
CC1(C)N=C(N)N=C(N)N1c1ccc(Cl)cc1 [cycloguanil],IC50,"[1]; Erythrocyte, read-out: IC50 (erythrocyte schizont, Figure 5), box linked to blood stage schizont",< 0.004 µM
same,fold loss of potency,[1]; between sensitive and resistant strains,≥ 100 fold
same,IC50,[2]; [6],< 1 µM
same,IC50,[2]; [14],< 0.01 µM
CCN(CC)Cc1cc(Nc2ccnc3cc(Cl)ccc23)ccc1O [amodiaquine],IC50,[1]; [9],0.002 to 0.01 µM
same,resistance / retention of potency against resistant strains,[1],do not lose potency when tested against chloroquine resistant strains
same,effect on exflagellation (words),[3]; [8],inhibited P. falciparum exflagellation
same,inhibition at 10 µM,[3]; [13],> 60%
same,IC50,[2]; [7],< 3 µM
CCN(CC)CCCNc1ccnc2cc(Cl)ccc12 [AQ-13],IC50,[2]; [7],< 3 µM
CCc1nc(N)nc(N)c1OCCCOc1ccccc1CCC(=O)O [P218],IC50,[2]; [6],< 1 µM
same,IC50,[2]; [14],< 0.01 µM
COc1cc(Cc2cnc(N)nc2N)cc(OC)c1OC [trimethoprim],IC50,[1]; [10],1 to 10 µM
CC[C@H]1OC(=O)[C@H](C)[C@@H](O[C@H]2C[C@@](C)(OC)[C@@H](O)[C@H](C)O2)[C@H](C)[C@@H](O[C@@H]2O[C@H](C)C[C@H](N(C)C)[C@H]2O)[C@](C)(O)C[C@@H](C)CN(C)[C@H](C)[C@@H](O)[C@]1(C)O [azithromycin],IC50,[1]; [10],1 to 10 µM
CN(C)c1ccc2nc3ccc(=[N+](C)C)cc-3sc2c1 [methylene blue],IC50,[2]; [6],< 1 µM
same,IC50,[2]; [14],< 0.1 µM
C[C@H]1[C@H](N2CCS(=O)(=O)CC2)O[C@@H]2O[C@@]3(C)CC[C@H]4[C@H](C)CC[C@@H]1[C@@]24OO3 [artemisone],IC50,[2]; [6],< 1 µM
same,IC50,[2]; [14],< 0.1 µM
